According to paper PMC12305873, “Chlorinated biscoumarins inhibit chikungunya virus replication in cell-based and animal models” (Emerging Microbes & Infections, 2025):

What was measured:
[1] = test system: CHIKV; test: Cell-based anti-attachment assay in Vero cells; details: 10 µM
[2] = Pharmacokinetic study in rats; details: rat
[3] = test system: dengue virus NS5 methyltransferase (MTase); parameters: method as in Loeanurit et al., under review; details: targeting the SAM binding site; ref Loeanurit et al., under review; cited from earlier work
[4] = test system: CHIKV; test: CHIKV plaque assay in Vero cells; details: Chikungunya virus, read-out: EC50, CHIKV inhibition
[5] = target: CHIKV nsP1 (Chikungunya virus, UniProt Q8JUX6); test: MTase-Glo methyltransferase assay; details: At 50 µM (method: 100 µM), purified CHIKV nsP1
[6] = test system: CHIKV; test: CHIKV plaque assay in HEK 293 cells; details: Chikungunya virus, HEK293, read-out: EC50, CHIKV inhibition
[7] = test system: CHIKV; test: In vivo anti-CHIKV efficacy, CHIKV-induced arthritis mouse model
[8] = Pharmacokinetic study in mice
[9] = test system: CHIKV replicon; test: CHIKV replicon inhibition assay (Renilla luciferase) in BHK-21 cells; details: Chikungunya virus, BHK-21, 24 h, read-out: EC50, CHIKV replicon inhibition (printed IC50 in Figure 2g,h and b75)
[10] = test system: CHIKV; test: Time-of-addition and time-of-removal assay in Vero cells; details: 10 µM, MOI 1
[11] = Cytotoxicity by MTS assay in HEK 293 cells; details: human
[12] = Cytotoxicity assay alongside the replicon assay; details: hamster
[13] = test system: C57BL/6 mice; test: Single-dose acute oral toxicity in mice
[14] = test system: Sprague Dawley rats; test: ALT and Cr levels in rat plasma samples of the PK study; details: single oral 250 mg/kg, plasma at 24, 48, 72 h
[15] = Sprague Dawley, in vivo, po, 250 mg/kg
[16] = oral 250 mg/kg, mean ± SD, 250 mg/kg
[17] = compounds single oral 250 mg/kg, ribavirin 50 mg/kg BID IP
[18] = C57BL/6, mouse, in vivo, po, 250 mg/kg
[19] = mice, oral 250 mg/kg, mean ± SD
[20] = single oral dose 250 or 500 mg/kg

Sequence of CHIKV nsP1 (Q8JUX6 1-535): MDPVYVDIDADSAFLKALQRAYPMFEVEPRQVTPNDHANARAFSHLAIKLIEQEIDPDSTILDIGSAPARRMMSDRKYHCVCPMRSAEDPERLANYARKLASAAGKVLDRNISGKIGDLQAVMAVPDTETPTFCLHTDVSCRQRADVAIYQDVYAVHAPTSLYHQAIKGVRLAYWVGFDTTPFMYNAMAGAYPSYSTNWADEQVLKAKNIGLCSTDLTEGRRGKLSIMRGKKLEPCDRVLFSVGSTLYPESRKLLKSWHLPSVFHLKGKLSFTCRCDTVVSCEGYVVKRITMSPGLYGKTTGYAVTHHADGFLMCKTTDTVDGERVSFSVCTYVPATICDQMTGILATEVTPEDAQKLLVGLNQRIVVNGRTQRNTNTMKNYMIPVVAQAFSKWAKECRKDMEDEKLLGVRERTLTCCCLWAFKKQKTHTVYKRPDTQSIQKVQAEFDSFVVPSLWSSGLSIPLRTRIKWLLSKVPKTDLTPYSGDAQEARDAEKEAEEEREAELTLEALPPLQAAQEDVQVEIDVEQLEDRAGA

SMILES: O=c1oc2ccccc2c(O)c1C(c1ccc(Cl)cc1)c1c(O)c2ccccc2oc1=O [compound 4, 3,3′-((4-chlorophenyl)methylene)bis(4-hydroxy-2H-chromen-2-one)]
- CHIKV inhibition, post-incubation or throughout ([1]; Vero, MOI 0.1, 24 hpi): robust antiviral activity was observed
- CHIKV inhibition, pre-treatment, pre-incubation or co-incubation ([1]; Vero, MOI 0.1, 24 hpi): Neither compound exhibited significant inhibition
- Effect of compound pre-treatment on viral replication ([1]; cells treated 1 h before virus): enhanced the viral replication
- AUC [2, 15]: 4180 µg·h/mL
- AUC(0-inf) [2, 15]: 4440 ± 1730 µg·h/mL
- AUC(0-t) [2, 15]: 4180 ± 1640 µg·h/mL
- CL/F [2, 15]: 1.08 mL/min/kg
- MRT inf [2, 15]: 26.77 ± 0.127 h
- MRT last [2, 15]: 22.2 ± 0.801 h
- Cmax ([2]; Sprague Dawley, in vivo, po, 250 mg/kg, Cmax, oral 250 mg/kg, mean ± SD): 133 ± 40.8 µg/mL
- half-life ([2]; Sprague Dawley, in vivo, po, 250 mg/kg, HL (half-life), oral 250 mg/kg, mean ± SD): 16.6 h
- Cmax ([2]; Sprague Dawley, in vivo, po, 250 mg/kg, Peak plasma concentration (Cmax), rats, oral 250 mg/kg): 133 µg/mL
- Tmax ([2]; Sprague Dawley, in vivo, po, 250 mg/kg, Tmax, oral 250 mg/kg, mean ± SD): 10.7 h
- AUC_% Extrap_obs ([2]; oral 250 mg/kg, mean ± SD): 6.119 ± 0.999%
- Vz_F_obs ([2]; oral 250 mg/kg, mean ± SD): 1.596 ± 0.946 L/kg
- HL (half-life) [2, 16]: 16.649 ± 1.601 h
- Tmax [2, 16]: 10.667 ± 2.309 h
- Inhibition of dengue virus NS5 methyltransferase [3]: inhibitors of the dengue virus NS5 methyltransferase (MTase)
- EC50 [4]: 2.9 ± 0.25 µM
- nsP1 methyltransferase enzymatic activity vs DMSO control [5]: significantly inhibited enzymatic activity
- EC50 [6]: 4.65 ± 0.56 µM
- PMN infiltration in footpad (H&E), day 1 [7, 17]: reduced PMN infiltration on day 1
- PMN infiltration in footpad (H&E), days 2 and 3 [7, 17]: PMN infiltration persisting at moderate levels
- CHIKV titres in footpad tissues, plaque assay, day 2 post-infection ([7]; single oral 250 mg/kg): significantly reduced CHIKV titres in footpad tissues
- Systemic viremia (plasma CHIKV titres, plaque assay) ([7]; single oral 250 mg/kg): no marked reduction in systemic viremia
- Foot swelling and activity vs vehicle group ([7]; single oral 250 mg/kg at 24 h after infection, transient, not significantly different from vehicle): moderate improvement in foot swelling and activity
- AUC [8, 18]: 2750 µg·h/mL
- AUC(0-inf) [8, 18]: 2750 ± 927 µg·h/mL
- AUC(0-t) [8, 18]: 2750 ± 927 µg·h/mL
- CL/F [8, 18]: 1.67 mL/min/kg
- MRT inf [8, 18]: 10.1 ± 0.366 h
- MRT last [8, 18]: 10.1 ± 0.356 h
- Tmax [8, 18]: 6 h
- Cmax ([8]; C57BL/6, mouse, in vivo, po, 250 mg/kg, Cmax, mice, oral 250 mg/kg, mean ± SD): 197 ± 77 µg/mL
- half-life ([8]; C57BL/6, mouse, in vivo, po, 250 mg/kg, HL (half-life), mice, oral 250 mg/kg, mean ± SD): 3.42 h
- Cmax ([8]; C57BL/6, mouse, in vivo, po, 250 mg/kg, Peak plasma concentration (Cmax), mice, oral 250 mg/kg): 197 µg/mL
- Time within which plasma concentration fell below EC90 and EC50 ([8]; mice, oral 250 mg/kg): 24 to 48 h
- AUC_% Extrap_obs [8, 19]: 0.018 ± 0.014%
- Vz_F_obs [8, 19]: 0.494 ± 0.200 L/kg
- HL (half-life) ([8]; mice, oral 250 mg/kg, mean ± SD, 250 mg/kg): 3.422 ± 0.419 h
- EC50 [9]: 5.04 ± 0.23 µM
- Time-of-addition time-points significantly different from DMSO control [10]: 1–6 hpi
- Viral titres in time-of-addition (TOA) assay [10]: significantly reduced viral titres when added up to 9 hpi
- CC50 at 2 days [11]: 44.4 ± 1.48 µM
- CC50 [12]: 79.87 ± 0.4 µM
- Activity scores [13, 20]: no significant difference in activity scores
- Kidney histology [13, 20]: remained within normal limits
- Liver (ALT) and kidney (creatinine) biomarkers ([13]; single oral dose 250 or 500 mg/kg, days 1, 3, 7): remained within normal limits
- Survival and clinical signs over 7 days ([13]; single oral dose 250 or 500 mg/kg, mice): All animals survived
- Liver histology ([13]; single oral dose, day 1, also seen in vehicle-treated animals): Mild, transient hepatocellular vacuolization
- Tolerability of a single oral dose ([13]; up to 500 mg/kg, mice): well tolerated
- ALT and Cr levels [14]: within normal limits
